Laboratory results from US20260306526A1, “COMBINATION THERAPY FOR BACTERIAL INFECTIONS COMPRISING ZINC-CHELATOR, BETA-LACTAM ANTIBIOTIC AND SERINE BETA-LACTAMASE INHIBITOR” (priority 2023, published 2026).
“And” between values parts separate entries of the source, which are not always exact repeats. Identical values can stand only once.

Experiments:
[1] = tested on: K. pneumoniae K66-45 (NDM-1); experiment: MIC determination of meropenem with zinc chelator at varying zinc concentrations in the medium (Example 31); format: cell-based, Klebsiella pneumoniae
Description: An experiment was conducted to determine the Minimal Inhibitory Concentration (MIC) of meropenem (MEM) in combination with the zinc chelator according to Example 26 of WO 2018/033719 at varying concentrations of zinc in the medium. The medium was a Mueller Hinton broth from Thermo Fischer. The zinc content was measured as 5.6 μM using ICP-MS. The concentration of zinc in the plasma of healthy animals has been determined to be close to this value. In infectious tissue, the zinc concentration is below the limit of detection (see, for example Bilinskaya et al., Am. Soc. For Microbiology (2020), 58, pages 1-8). Zinc sulfate was then added to this broth to obtain three further concentrations: 15.6 μM, 25.6 μM and 35.6 μM of zinc, keeping all other parameters constant.
As a model bacterial strain for this experiment, the MIC of MEM vs. K. pneumoniae K66-45 (NDM-1) was then determined in broth containing the four concentrations of zinc following the protocol given in Example 1. The EUCAST MIC value for MEM alone (EUCAST: standardization organization for MIC values of antibiotics) is 4-8 μM, meaning that if a bacterial strain is inhibited at lower concentrations than the MIC value, the bacterial strain is sensitive(S) to MEM. Correspondingly, if the bacterial strain is not inhibited at MIC or lower, the strain is resistant (R). If the inhibition is within the MIC range 4-8 μM, the resistance is intermediate (I).

[2] = tested on: Klebsiella pneumoniae K66-45; experiment: MIC determination, fixed ratio of sBLI to antibiotic (Examples 2-4); format: cell-based; settings: Example 2; with MEM and AVI (fixed ratio); NDM-1; caMHB, 29.4 μM Zn2+
Description: Antimicrobial susceptibility testing (AST) by broth microdilution (MIC determination) was performed according to The European Committee on Antimicrobial Susceptibility Testing (EUCAST) guidelines (see Reading guide for broth microdilution Version 5.0, 2024: https://www.eucast.org).
Sterile clear round bottom polystyrene (non-treated) 96-well microplates (Corning 3788) were used for making serial two-fold dilutions of the antibiotic and the sBLI in cation-adjusted Mueller Hinton II broth (caMHB; Thermo Scientific, T3462, containing 29.4 μM Zn^2+), across the columns of the microtiter plate (256-0.06 μg/mL; columns 1-12). The checkerboard plates were all made by keeping the sBLI at a fixed ratio relative to antibiotic (absolute concentrations of each, in μg/mL) to all wells containing sample in each plate. Additionally, a set of samples was included in each test plate, where the zinc chelator was added, at various fixed concentrations, of 16 μg/mL, 8 μg/mL and/or 4 μg/mL (as specified in each Example). All sample wells contained growth medium (caMHB), and inoculated bacteria at a final inoculum between 3-7×10^5 CFU/mL. […]

SMILES: CN(C[C@H](O)[C@@H](O)[C@H](O)[C@H](O)CO)C(=O)c1ccc(CN(Cc2ccccn2)Cc2ccccn2)nc1 [zinc chelator]
- sensitivity of the strain ([1]; printed: "at 4-8 μM when used tested at a concentration 4 μM", with MEM): sensitive
- effect against the bacterial strain ([1]; zinc chelator 16 μM with MEM, highest concentration of zinc (35.6 μM)): ineffective
- Synergy with the zinc chelator observed at concentration [2]: 16 µg/mL and 8 µg/mL
